Here are results for two compounds from ChEMBL document CHEMBL4308881, “Tetradehydrohalicyclamine B, a new proteasome inhibitor from the marine sponge Acanthostrongylophora ingens” (Bioorg Med Chem Lett, 2019).

Format in all cases: cell-based
The target of data set [1] is T1, Proteasome subunit beta type-9 (Homo sapiens, UniProt P28065).
T1 sequence (P28065 whole entry): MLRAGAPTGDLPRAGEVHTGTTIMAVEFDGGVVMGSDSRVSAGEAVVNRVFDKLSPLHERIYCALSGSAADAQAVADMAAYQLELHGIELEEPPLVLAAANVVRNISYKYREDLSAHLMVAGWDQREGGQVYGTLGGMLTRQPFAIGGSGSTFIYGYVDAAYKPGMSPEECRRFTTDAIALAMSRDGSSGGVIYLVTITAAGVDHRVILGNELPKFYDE
The data set is described as follows: Inhibition of 20s immunoproteasome LMP2 in human erythrocytes using Ac-Pro-Ala-Leu-MCA as substrate preincubated for 10 mins followed by substrate addition and measured after 6 hrs by fluorescence assay.

In data set [2] the target is T2, Proteasome subunit beta type-10 (Homo sapiens) (UniProt P40306).
T2 sequence (whole entry): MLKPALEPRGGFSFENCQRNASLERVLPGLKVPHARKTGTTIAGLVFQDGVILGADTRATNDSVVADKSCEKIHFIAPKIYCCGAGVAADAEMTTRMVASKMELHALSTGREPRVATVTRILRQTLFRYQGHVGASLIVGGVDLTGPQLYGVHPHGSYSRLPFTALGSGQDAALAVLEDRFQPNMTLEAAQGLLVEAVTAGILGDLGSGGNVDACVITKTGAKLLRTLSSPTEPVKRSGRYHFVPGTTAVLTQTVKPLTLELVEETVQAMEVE
The data set is described as follows: Inhibition of 20s immunoproteasome MECL1 in human erythrocytes at 15 uM using Suc-Leu-Leu-ValTyr-MCA as substrate preincubated for 10 mins followed by substrate addition and measured after 6 hrs by fluorescence assay.

The target in data set [3] is T3, Proteasome Macropain subunit MB1 (Homo sapiens, UniProt P28074).
T3 sequence (P28074 whole entry): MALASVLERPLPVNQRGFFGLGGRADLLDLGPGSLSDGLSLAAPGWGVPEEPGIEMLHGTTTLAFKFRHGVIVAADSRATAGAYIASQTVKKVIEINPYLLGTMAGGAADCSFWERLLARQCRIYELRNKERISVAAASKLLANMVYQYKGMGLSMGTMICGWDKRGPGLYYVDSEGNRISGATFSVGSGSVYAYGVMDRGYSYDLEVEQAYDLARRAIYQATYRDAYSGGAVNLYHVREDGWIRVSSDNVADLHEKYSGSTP
The data set is described as follows: Inhibition of 20s constitutive proteasome beta5 chymotrypsin-like activity in human erythrocytes using Suc-Leu-Leu-ValTyr-MCA as substrate preincubated for 10 mins followed by substrate addition and measured after 6 hrs by fluorescence assay.

Data set [4] concerns HeLa. Briefly: Cytotoxicity against human HeLa cells at 50 uM after 3 days by MTT assay. The note with it: 72 h. Background: Tetrazolium dyes change colour on reduction, which living cells bring about.
The target of data set [5] is T4, Proteasome subunit beta type-8 (Homo sapiens, UniProt P28062).
T4 sequence (P28062 whole entry): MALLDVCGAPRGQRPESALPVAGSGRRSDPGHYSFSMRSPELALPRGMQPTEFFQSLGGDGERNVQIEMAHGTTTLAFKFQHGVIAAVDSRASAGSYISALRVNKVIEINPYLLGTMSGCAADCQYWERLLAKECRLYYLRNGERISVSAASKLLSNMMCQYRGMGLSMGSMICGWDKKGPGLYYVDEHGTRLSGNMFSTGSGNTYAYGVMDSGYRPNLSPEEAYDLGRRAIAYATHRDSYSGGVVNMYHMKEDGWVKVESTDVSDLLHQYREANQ
The data set is described as follows: Inhibition of 20s immunoproteasome LMP7 in human erythrocytes using Suc-Leu-Leu-ValTyr-MCA as substrate preincubated for 10 mins followed by substrate addition and measured after 6 hrs by fluorescence assay.

Data set [6] relates to HeLa. The data set is described as follows: Cytotoxicity against human HeLa cells after 3 days by MTT assay. Particulars: 72 h.
Data set [7] addresses T5, Proteasome subunit beta type-10 (Homo sapiens, UniProt P40306).
T5 sequence (P40306 whole entry): T2 sequence (whole entry)
Briefly: Inhibition of 20s immunoproteasome MECL1 in human erythrocytes using Suc-Leu-Leu-ValTyr-MCA as substrate preincubated for 10 mins followed by substrate addition and measured after 6 hrs by fluorescence assay.

Activity calls are given as the source filed them. No cut-off for these calls is given here.

As a reminder, the IC50 is the concentration at which inhibition is half-maximal. Read a low IC50 as inhibition by little substance.

For `C1=C\CCc2cc3c[n+](c2)CCCC/C=C\CC[C@@H]2CN(CCCC/1)CC[C@@H]32`, the IC50 amounted to 3100 nM in data set [1], 1800 nM in data set [3] and 4100 nM in data set [5]. For the same compound, in data set [2], the inhibition entry is “inactive”. The Activity entry in data set [4] is reported as “Non-Toxic”.
As to `C1=C2CN3CCCC/C=C\CC[C@@H]4CN(CCCC/C=C\CC[C@H]1C3)CC[C@@H]24`, the IC50 is 440 nM in data set [1]; 12000 nM in data set [6]; 420 nM in data set [3]; 630 nM in data set [5]; 8000 nM in data set [7].
